The record followed here is paper PMC12368479, “Inhibition of the Clathrin Terminal Domain—Amphiphysin Protein–Protein Interaction. Probing the Pitstop 2 Aromatic Moiety” (Chemmedchem, 2025).

In experiment [1] the target is T1, full length human Dynamin I (Homo sapiens, UniProt Q05193).
T1 construct: full length human Dynamin I expressed in Sf21 insect cells; made in house; host or cells: Sf21 insect cells
T1 sequence (Q05193 1-864): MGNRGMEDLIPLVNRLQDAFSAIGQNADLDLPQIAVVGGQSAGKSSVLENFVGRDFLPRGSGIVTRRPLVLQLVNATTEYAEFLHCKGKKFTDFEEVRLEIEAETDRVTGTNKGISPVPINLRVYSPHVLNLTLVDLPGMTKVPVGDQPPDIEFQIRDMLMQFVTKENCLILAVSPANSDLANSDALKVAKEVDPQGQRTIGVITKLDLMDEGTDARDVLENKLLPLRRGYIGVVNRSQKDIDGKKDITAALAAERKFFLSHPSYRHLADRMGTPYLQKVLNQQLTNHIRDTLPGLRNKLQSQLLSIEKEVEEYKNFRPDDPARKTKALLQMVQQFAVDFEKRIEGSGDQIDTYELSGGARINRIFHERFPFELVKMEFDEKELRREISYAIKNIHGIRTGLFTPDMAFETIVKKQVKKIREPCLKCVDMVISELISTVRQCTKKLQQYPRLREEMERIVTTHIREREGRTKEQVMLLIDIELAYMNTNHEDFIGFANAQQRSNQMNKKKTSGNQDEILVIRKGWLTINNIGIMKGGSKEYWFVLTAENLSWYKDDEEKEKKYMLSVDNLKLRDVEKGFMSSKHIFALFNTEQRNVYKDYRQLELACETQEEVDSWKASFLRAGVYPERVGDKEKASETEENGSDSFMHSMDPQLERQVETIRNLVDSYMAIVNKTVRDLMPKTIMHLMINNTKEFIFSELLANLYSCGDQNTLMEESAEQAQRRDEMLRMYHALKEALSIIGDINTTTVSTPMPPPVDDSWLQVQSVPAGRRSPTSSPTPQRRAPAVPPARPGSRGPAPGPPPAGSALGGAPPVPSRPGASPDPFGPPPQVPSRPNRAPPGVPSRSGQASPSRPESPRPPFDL
Briefly: Dynamin GTPase activity, Malachite Green phosphate detection assay. It is filed as biochemical. As to the method: Dynamin GTPase activity was determined in vitro using the Malachite Green phosphate detection absorbance‐based assay within a 96‐well plate format as described previously. The enzyme source was full length human Dynamin I expressed in Sf21 insect cells and affinity‐purified on GST‐Amph2‐SH3 (rat Amphiphysin 2 (494–588)).^[ [56] ^]

Experiment [2] concerns transferrin uptake (CME) in U2OS osteosarcoma cells. Kind of experiment: Clathrin-mediated endocytosis assay: transferrin (Tfn) uptake in U2OS cells. Format: cell-based. Particulars: for IC50 / inhibition at 5 µM / inhibition at 50 µM: Homo sapiens, U2OS; for IC50: Table 5, inhibition of transferrin‐red uptake in U2OS cells, '–'/NA = not active at 100 μM; for inhibition at 5 µM: read-out: 2-point CME (% Inhibition) 5 µM; for inhibition at 50 µM: read-out: 2-point CME (% Inhibition) 50 µM. The method, then: Using our previously reported CME assay in U2OS cells, the ability of these compounds to block endocytosis was examined (Table 5 ).^[ [48], [49] ^]
CME was examined by a high‐throughput, quantitative assay for measuring transferrin (Tfn) uptake in U2OS osteosarcoma cells, based on methods described previously.^[ [48] ^]
Compounds were made up fresh from powder stock just prior to commencing the assay, and stock solutions were stored at −20 °C for several months.

Experiment [3] has as its target T2, clathrin heavy chain NTD (amino acids 1–364) – amphiphysin 1 B/C domain protein–protein interaction (NTD‐PPI) (Homo sapiens, UniProt Q00610).
T2 construct: GST‐tagged clathrin heavy chain NTD (amino acids 1–364); made in house
T2 sequence (Q00610 1-364): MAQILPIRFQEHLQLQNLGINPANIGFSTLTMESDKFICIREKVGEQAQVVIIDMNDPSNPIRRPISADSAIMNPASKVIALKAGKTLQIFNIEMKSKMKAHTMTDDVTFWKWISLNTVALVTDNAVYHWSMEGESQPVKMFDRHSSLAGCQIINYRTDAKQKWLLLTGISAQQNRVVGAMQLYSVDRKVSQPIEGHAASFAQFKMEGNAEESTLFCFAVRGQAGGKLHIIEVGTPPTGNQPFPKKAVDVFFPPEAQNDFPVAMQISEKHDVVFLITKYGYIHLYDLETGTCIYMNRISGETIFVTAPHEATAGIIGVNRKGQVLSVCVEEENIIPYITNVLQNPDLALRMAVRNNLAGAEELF
Kind of experiment: ELISA-based clathrin inhibitor binding assay (NTD-PPI). The method, then: The clathrin inhibitor assay was based inhibition of protein–protein interaction (PPI) between clathrin and amphiphysin as described in our previous report.^[ [45], [54] ^] Bacterially expressed recombinant purified His6‐tagged amphiphysin 1 B/C domain (which comprises both the clathrin and the AP‐2 binding sites, amino acids 250‐578^[ [55] ^]) in screening buffer (20 mM HEPES, pH 7.4, 50 mM NaCl, 1 mM DTT, 1 mM PMSF) was added to a 384 well ELISA plate (Corning Maxisorp 3700) and bound to the plastic for 1 h at room temperature. […] Following extensive washes (with 20 mM HEPES, pH 7.4, 50 mM NaCl, 0.05% Tween 20), chemical compounds diluted in DMSO (10 μL) were added and incubated together with bacterially expressed recombinant GST‐tagged clathrin heavy chain NTD (amino acids 1–364) for 1 h at room temperature in screening buffer. After 3 washes, horseradish peroxidase‐coupled anti‐GST antibodies were added in screening buffer and the plate incubated for 40 min at room temperature. Following additional washes, 50 μL TMB (3,3′,5,5′‐tetramethylbenzidine) (Pierce Biotechnology) chromogenic substrate of horseradish peroxidase was added, and the plate was incubated for 10 min before the reaction was terminated by adding 50 μL 1N sulfuric acid to produce a yellow colour. The amount of bound protein was determined by spectrophotometric measurement in a plate reader. Relative binding was calculated as a percentage of DMSO control.
A general note: In an ELISA, binding on a coated surface is turned into a signal by an enzyme label.

Setting [4] is: Table 4, library 4, n = 1 or n = 2 as footnoted, '–' = not active at 100 μM, read-out: Dynamin 1 IC50.
Setting [5] is: Table 5, dynamin GTPase, n = 1 or n = 2 as footnoted, NA = not active at 100 μM, read-out: Dynamin 1 IC50.
Where [6] appears, read: Table 4, library 4, ELISA, average of duplicate measurements (n = 2), read-out: NTD‐PPI IC50.
Where [7] appears, read: Table 5, ELISA, read-out: NTD‐PPI IC50.
Where [8] appears, read: Table S1, preliminary (n=1) unless otherwise noted, NA = not active, includes IC50 > 150 μM, read-out: Dynamin 1 IC50.
Where [9] appears, read: Table 1, library 1, n = 1 unless noted (19: n = 2), '–' = not active at 150 μM, read-out: Dyn 1 IC50.
Setting [10] is: Table S1, average of duplicate measurements (n=2), read-out: NTD-PPI IC50.

“And” between values parts separate entries of the source, which are not always exact repeats. Identical values can stand only once. Like-named read-outs stand apart in the source and are kept apart here. A value given as a limit tells only on which side of the number the result lay.

Consider `O=C1N=C(NS(=O)(=O)c2cccc3ccccc23)S/C1=C\c1ccc2c(c1)OCCO2` [compound 54, (Z)‐N‐(5‐((2,3‐dihydrobenzo[b][1,4]dioxin‐6‐yl)methylene)‐4‐oxo‐4,5‐dihydrothiazol‐2‐yl)naphthalene‐1‐sulfonamide], for which the IC50 (in general, the point on the concentration scale where inhibition reaches its midpoint) in experiment [1] (setting [4]) was 60.1 ± 8.6 µM; in experiment [1] (setting [5]), 60.1 ± 8.6 µM; in experiment [1] (values quoted in running text (section 2.2), read-out: Dynamin IC50), 60 µM; in experiment [2] it was about 35 µM; in experiment [3] (setting [6]) it was 1.2 µM; in experiment [3] (setting [7]) it was 1.2 µM. In experiment [3] (read-out: NTD‐PPI IC50 (ELISA)), the concentration for half-maximal inhibition (IC50) was found to be 1.16 µM. Moreover, in experiment [2] (U2OS cells, in words), the “CME activity compared with Pitstop 2” value was “threefold decrease”. Moreover, the “fold activity increase (NTD‐PPI) relative to 56” value in experiment [3] (ELISA) is on record as over 3 fold.
Consider `O=C1N=C(NS(=O)(=O)c2cccc3ccccc23)S/C1=C\c1c[nH]c2ccccc12` [compound 60, (Z)‐N‐(5‐((1H‐indol‐3‐yl)methylene)‐4‐oxo‐4,5‐dihydrothiazol‐2‐yl)naphthalene‐1‐sulfonamide], for which the IC50 is over 150 µM in experiment [1] (setting [8]) and 3.2 µM in experiment [3] (setting [6]). Besides, the inhibition (as a rule, the share of the control response that was lost under treatment) at 5 µM in experiment [2] stood at 0%. The inhibition at 50 µM in experiment [2] stood at 38%.
Turning to `O=C1N=C(NS(=O)(=O)c2cccc3ccccc23)SC1=Cc1ccc(-c2ccccc2)cc1` [compound 18, N‐(5‐([1,1'‐biphenyl]‐4‐ylmethylene)‐4‐oxo‐4,5‐dihydrothiazol‐2‐yl)naphthalene‐1‐sulfonamide], the IC50 in experiment [1] (setting [9]) is 85 µM; in experiment [1] (setting [5]), 85.3 µM; in experiment [2], about 43.1 µM; in experiment [3] (setting [7]), 1.4 µM.
Consider `O=C1N=C(NS(=O)(=O)c2cccc3ccccc23)S/C1=C\c1ccc2c(c1)OCO2` [compound 56, (Z)‐N‐(5‐(benzo[d][1,3]dioxol‐5‐ylmethylene)‐4‐oxo‐4,5‐dihydrothiazol‐2‐yl)naphthalene‐1‐sulfonamide], for which the IC50 is over 100 µM in experiment [1] (setting [4]); 19.4 ± 10.5 µM in experiment [2]; 3.2 µM in experiment [3] (setting [6]); 3.2 µM in experiment [3] (setting [7]); < 5 µM and 4 µM in experiment [3] (read-out: NTD‐PPI IC50 (ELISA)). Besides, the “CME activity compared with Pitstop 2” value in experiment [2] (U2OS cells, in words) was “comparable”. Also, the “CME inhibition relative to dihydrobenzofuran 57” value in experiment [2] (U2OS cells, in words) is “threefold increase”. Further, the “NTD‐PPI activity relative to 54” value in experiment [3] (ELISA, in words) was “threefold less active”.
Regarding `O=C1N=C(NS(=O)(=O)c2cccc3ccccc23)S/C1=C\c1ccc([N+](=O)[O-])cc1` [compound 13, (Z)‐N‐(5‐(4‐nitrobenzylidene)‐4‐oxo‐4,5‐dihydrothiazol‐2‐yl)naphthalene‐1‐sulfonamide], the IC50 was about 56 µM in experiment [1] (setting [9]); 55.8 µM in experiment [1] (setting [5]); about 14.6 µM in experiment [2]; 5.2 µM in experiment [3] (Table 1, library 1, ELISA, average of duplicate measurements (n=2), read-out: NTD‐PPI IC50); 5.2 µM in experiment [3] (setting [7]). The “CME activity compared with Pitstop 2” value in experiment [2] (U2OS cells, in words) was “comparable”.
Regarding `O=C1N=C(NS(=O)(=O)c2cccc3ccccc23)S/C1=C\c1c[nH]c2cc(Br)ccc12` [compound 64, (Z)‐N‐(5‐((6‐bromo‐1H‐indol‐3‐yl)methylene)‐4‐oxo‐4,5‐dihydrothiazol‐2‐yl)naphthalene‐1‐sulfonamide], the IC50 in experiment [1] (setting [4]) is over 100 µM; in experiment [1] (setting [8]), over 150 µM; in experiment [3] (setting [6]), 3.42 µM; in experiment [3] (read-out: NTD‐PPI IC50 (ELISA)) it was 3.4 µM. In addition, the inhibition at 5 µM in experiment [2] is 17%. Moreover, the inhibition at 50 µM in experiment [2] stood at 70%.
On to `Cn1cc(/C=C2\SC(NS(=O)(=O)c3cccc4ccccc34)=NC2=O)c2ccccc21` [compound 61, (Z)‐N‐(5‐((1‐methyl‐1H‐indol‐3‐yl)methylene)‐4‐oxo‐4,5‐dihydrothiazol‐2‐yl)naphthalene‐1‐sulfonamide], for which the results for the 50% inhibitory concentration (IC50) in experiment [1] (setting [8]), in experiment [3] (setting [6]) and in experiment [3] (read-out: NTD‐PPI IC50 (ELISA)) were over 150 µM, 3.05 µM and 3 µM, respectively. Further, the inhibition at 5 µM in experiment [2] amounted to 9%. In addition, in experiment [2], the inhibition at 50 µM was found to be 69%.
On to `O=C1N=C(NS(=O)(=O)c2cccc3ccccc23)S/C1=C\c1c[nH]c2ccc(Br)cc12` [compound 65, (Z)‐N‐(5‐((5‐bromo‐1H‐indol‐3‐yl)methylene)‐4‐oxo‐4,5‐dihydrothiazol‐2‐yl)naphthalene‐1‐sulfonamide], for which the IC50 was over 100 µM in experiment [1] (setting [4]), over 150 µM in experiment [1] (setting [8]), 2.91 µM in experiment [3] (setting [6]) and 2.9 µM in experiment [3] (setting [10]). The inhibition at 5 µM in experiment [2] was determined as 0%. Further, the inhibition at 50 µM in experiment [2] is 64%.
For `O=C1N=C(NS(=O)(=O)c2cccc3ccccc23)S/C1=C\c1ccc2[nH]ccc2c1` [compound 59, (Z)‐N‐(5‐((1H‐indol‐5‐yl)methylene)‐4‐oxo‐4,5‐dihydrothiazol‐2‐yl)naphthalene‐1‐sulfonamide], the half-inhibitory concentration (IC50) came to 83.8 ± 10.7 µM in experiment [1] (setting [4]), 3.66 µM in experiment [3] (setting [6]) and 3.7 µM in experiment [3] (setting [10]). Besides, the inhibition at 5 µM in experiment [2] amounted to 0%. Besides, in experiment [2], the inhibition at 50 µM was determined as 83%.
For `O=C1N=C(NS(=O)(=O)c2cccc3ccccc23)S/C1=C\c1c[nH]c2ccc(Cl)cc12` [compound 66, (Z)‐N‐(5‐((5‐chloro‐1H‐indol‐3‐yl)methylene)‐4‐oxo‐4,5‐dihydrothiazol‐2‐yl)naphthalene‐1‐sulfonamide], the IC50 in experiment [1] (setting [4]) was over 100 µM; in experiment [1] (setting [8]), over 150 µM. For the same compound, the inhibition at 5 µM in experiment [2] came out at 2%.
With `O=C1N=C(NS(=O)(=O)c2cccc3ccccc23)S/C1=C\C1CCCC1` [compound 41, (Z)‐N‐(5‐(cyclopentylmethylene)‐4‐oxo‐4,5‐dihydrothiazol‐2‐yl)naphthalene‐1‐sulfonamide], the IC50 is over 100 µM in experiment [1] (Table 3, library 3, n = 1 unless otherwise stated (41, 42: n = 2), '–' = not active at 100 μM, read-out: Dynamin 1 IC50) and over 150 µM in experiment [1] (setting [8]). Further, in experiment [2], the inhibition at 5 µM is 11%.
